Columns and labels:
IEC junction = test: Transmission electron microscopy of intestines, ruthenium red; type: in vivo, mouse; details: day 7 and day 21; allo-BMT recipients, intragastric butyrate
Description: Samples were stained as previously described (Soler, A. P. et al. Increased tight junctional permeability is associated with the development of colon cancer. Carcinogenesis 20, 1425-1431 (1999)). Briefly, the intestines from mice that received butyrate or vehicle treatment were harvested 7 days and 21 days following syngeneic and allogeneic BMT and flushed with 0.1 M Sorensen's phosphate buffer (pH 7.4) to remove luminal contents using a 20G needle. The intestines were next gently flushed with 0.1% ruthenium red (RR) containing 2.5% glutaraldehyde fixative in Sorensen's buffer and immediately placed in a dish containing the stain/fixative. Cross sections were immediately sliced (2 mm wide) from the duodenum, jejunum, and illium. The tissue was then rinsed three times with Sorensen's buffer, containing 0.1 percent RR and post-fixed for one hour in one percent osmium tetroxide in the same buffer containing RR. […] Images were recorded digitally using a Hamamatsu ORCA-HR digital camera system operated using AMT software (Advanced Microscopy Techniques Corp., Danvers, Mass.).
Intestinal permeability after allo-BMT was assessed by intragastric administration of FITC-dextran, a non-metabolized carbohydrate (Hanash, A. M. et al. Interleukin-22 protects intestinal stem cells from immune-mediated tissue damage and regulates sensitivity to graft versus host disease. Immunity 37, 339-350 (2012)).

[1] = tested on: allogeneic (C57BL/6J→BALB/c) BMT recipients; test: Allo-BMT with Treg-depleted donor T cells (CD4+CD25− or DREG + DT) and butyrate; type: in vivo, mouse
Description: To further determine whether the salutary effects of local treatment with butyrate on GI GVHD were dependent on donor Treg cells, a BMT was performed utilizing the same HC mismatched BMT model in which C57BL/6J (H-2b) cells are transferred to Balb/c (H-2d) mice. T cell-depleted (TCD) bone marrow was transplanted and purified CD4+CD25− T cells from donors. Vehicle or butyrate was administered to the recipients daily for 1 week, then every other day thereafter as above. […]. J. Exp. Med. 204, 57-63 (2007); Lahl, K. & Sparwasser, T. In vivo depletion of FoxP3+ Tregs using the DEREG mouse model. […]. The Treg depleted T cells were then used as donor cells in the major MHC mismatch model used above. […] To further examine whether the local administration of butyrate impacted donor T cells directly, the HDAC and HAT enzymatic activity was determined in donor T cells harvested from the recipient animals. Both the HDAC activity or HAT activity in the donor T cells harvested from the recipient spleen were similar between butyrate and vehicle treated allogeneic animals.

intestinal organoids = test: Intestinal organoid culture with butyrate; type: cell-based, mouse
Description: The potential mechanisms that contribute to butyrate-induced protection from severe GVHD were explored. Because (a) butyrate is decreased in IECs, (b) administration of butyrate mitigated GI GVHD independent of Treg cells, but (c) improved junction integrity, it was explored whether butyrate had direct effects on protecting IECs from allo-T cell mediated damage and conditioning. IECs were treated ex vivo with vehicle or butyrate for 24 hours irradiation (6 Gy) or no-irradition, followed by 24 hours of additional incubation with butyrate was performed. […] The ability of butyrate-treated IECs to withstand damage mediated by alloreactive T cells was determined by isolating and culturing primary IECs with butyrate or vehicle control, overnight. The pre-treated IECs were next co-cultured with primed allogeneic CD8+ T cells, in the absence of butyrate. […] Because butyrate is a primary energy source for IECs 1-13, it was next determined whether butyrate enhances survival and growth of IECs in vitro. To this end, intestinal organoids were cultured in the presence or absence of butyrate. […] Next, the impact of butyrate on IEC junctional function in the organoid cultures was confirmed by determining the mRNA expression of claudins (FIG. 5E).

[2] = Treg depleted (DREG + DT) donor T cells

`CCCC(=O)[O-].[Na+]` [butyrate, sodium butyrate] was tested, and the “integrity of the IEC junction (TEM)” value (IEC junction) was “preserved”, the GVHD ([1]; TCD bone marrow and purified CD4+CD25− donor T cells) was “Decreased GVHD” and the “clinical GVHD” value [1, 2] was “Significantly improved clinical GVHD”. For the same molecule, the survival [1, 2] was “improved survival”, the weight loss [1, 2] was “less weight loss” and the organoid size (intestinal organoids; culture in the presence of butyrate) was “significantly increased”. The “mRNA expression of claudins (Cldn1, Cldn5, Cldn6, Cldn10, Cldn11, Cldn13, Cldn14, Cldn17, Cldn18)” value (intestinal organoids; organoids cultured with butyrate) was “significantly increased”.
